Laboratory results published in PubChem BioAssay AID1259407 (Chemical Carcinogenesis Research Information System (CCRIS), 2018).
The source made the active and inactive calls. How the calls were made is not given here.

System: CCRIS mutagenicity, Ames/micronucleus/aberration tests
Assay: CCRIS mutagenicity studies

## CCN(CC)N=O
Test System: AMES SALMONELLA TYPHIMURIUM, Strain/Indicator: TA2410, Metabolic Activation: NONE, Method: HOST-MEDIATED
  mutagenic call: active; positive
Test System: AMES SALMONELLA TYPHIMURIUM, Strain/Indicator: TA2678, Metabolic Activation: NONE, Method: HOST-MEDIATED
  mutagenic call: active; positive
Test System: AMES SALMONELLA TYPHIMURIUM, Strain/Indicator: YG1024, Metabolic Activation: NONE, Method: PREINCUBATION
  mutagenic call: inactive; negative
Test System: AMES SALMONELLA TYPHIMURIUM, Strain/Indicator: YG1024, Metabolic Activation: RAT LIVER S-9, AROCLOR, Method: PREINCUBATION
  mutagenic call: active; positive
Test System: AMES SALMONELLA TYPHIMURIUM, Strain/Indicator: YG7100, Metabolic Activation: S-9, Method: PREINCUBATION
  mutagenic call: inactive; negative
Test System: AMES SALMONELLA TYPHIMURIUM, Strain/Indicator: YG7104, Metabolic Activation: S-9, Method: PREINCUBATION
  mutagenic call: active; positive
Test System: AMES SALMONELLA TYPHIMURIUM, Strain/Indicator: YG7104ER, Metabolic Activation: NONE, Method: STANDARD PLATE
  mutagenic call: active; positive
Test System: AMES SALMONELLA TYPHIMURIUM, Strain/Indicator: YG7108-2A6-OR, Metabolic Activation: NONE, Method: PREINCUBATION
  mutagenic call: active; positive
Test System: AMES SALMONELLA TYPHIMURIUM, Strain/Indicator: YG7108-2A6, Metabolic Activation: NONE, Method: PREINCUBATION
  mutagenic call: active; positive
Test System: AMES SALMONELLA TYPHIMURIUM, Strain/Indicator: YG7108-PCW, Metabolic Activation: NONE, Method: PREINCUBATION
  mutagenic call: inactive; negative
Test System: AMES SALMONELLA TYPHIMURIUM, Strain/Indicator: YG7108, Metabolic Activation: RAT LIVER S-9, PHENOBARBITAL AND 5,6-BENZOFLAVONE, Method: PREINCUBATION
  mutagenic call: active; positive
Test System: AMES SALMONELLA TYPHIMURIUM, Strain/Indicator: YG7108, Metabolic Activation: S-9, Method: PREINCUBATION
  mutagenic call: active; positive
Test System: AMES SALMONELLA TYPHIMURIUM, Strain/Indicator: YG7108ER, Metabolic Activation: NONE, Method: STANDARD PLATE
  mutagenic call: active; positive
Test System: AMES SALMONELLA TYPHIMURIUM, Strain/Indicator: YG7112, Metabolic Activation: S-9, Method: PREINCUBATION
  mutagenic call: active; positive
Test System: AMES SALMONELLA TYPHIMURIUM, Strain/Indicator: YG7113, Metabolic Activation: S-9, Method: PREINCUBATION
  mutagenic call: active; positive
Test System: AMES SALMONELLA TYPHIMURIUM, Strain/Indicator: YG7119, Metabolic Activation: S-9, Method: PREINCUBATION
  mutagenic call: inactive; negative
Test System: Ames Salmonella typhimurium, Strain/Indicator: TA98, Metabolic Activation: None, Method: Preincubation
  mutagenic call: active; positive
Test System: Ames Salmonella typhimurium, Strain/Indicator: TA98, Metabolic Activation: Rat, Liver, S-9, Aroclor 1254 (4%), Method: Preincubation
  mutagenic call: active; positive
Test System: Ames Salmonella typhimurium, Strain/Indicator: TA98DNP6 (Acetyltransferase deficient), Metabolic Activation: None, Method: Preincubation
  mutagenic call: inactive; negative
Test System: Ames Salmonella typhimurium, Strain/Indicator: TA98DNP6 (Acetyltransferase deficient), Metabolic Activation: Rat, Liver, S-9, Aroclor 1254 (4%), Method: Preincubation
  mutagenic call: inactive; negative
Test System: Ames Salmonella typhimurium, Strain/Indicator: TA98NR, Metabolic Activation: None, Method: Preincubation
  mutagenic call: inactive; negative
Test System: Ames Salmonella typhimurium, Strain/Indicator: TA98NR, Metabolic Activation: Rat, Liver, S-9, Aroclor 1254 (4%), Method: Preincubation
  mutagenic call: inactive; negative
Test System: Ames Salmonella typhimurium, Strain/Indicator: YG1021, Metabolic Activation: None, Method: Preincubation
  mutagenic call: inactive; negative
Test System: Ames Salmonella typhimurium, Strain/Indicator: YG1021, Metabolic Activation: Rat, Liver, S-9, Aroclor 1254 (4%), Method: Preincubation
  mutagenic call: inactive; negative
Test System: Ames Salmonella typhimurium, Strain/Indicator: YG1024 (Acetyltransferase overproducing), Metabolic Activation: None, Method: Preincubation
  mutagenic call: inactive; negative
Test System: Ames Salmonella typhimurium, Strain/Indicator: YG1024 (Acetyltransferase overproducing), Metabolic Activation: Rat, Liver, S-9, Aroclor 1254 (4%), Method: Preincubation
  mutagenic call: active; positive
Test System: Ames Salmonella typhimurium, Strain/Indicator: YG1041 (Acetyltransferase and nitroreductase overproducing), Metabolic Activation: None, Method: Preincubation
  mutagenic call: inactive; negative
Test System: Ames Salmonella typhimurium, Strain/Indicator: YG1041 (Acetyltransferase and nitroreductase overproducing), Metabolic Activation: Rat, Liver, S-9, Aroclor 1254 (4%), Method: Preincubation
  mutagenic call: inactive; negative
Test System: Ames Salmonella typhimurium, Strain/Indicator: YG7108pin3ERb5, Metabolic Activation: None, Method: Standard plate
  mutagenic call: active; positive
Test System: CHINESE HAMSTER V-79, Strain/Indicator: V-79 (HPRT)/6-THIOGUANINE, Metabolic Activation: RAT, HEPATOCYTES
  mutagenic call: active; positive
Test System: CHINESE HAMSTER V-79, Strain/Indicator: V-79 (HPRT)/6-THIOGUANINE, Metabolic Activation: RAT, HEPATOMA, H4IIE CELLS
  mutagenic call: inactive; negative
Test System: CHINESE HAMSTER V-79, Strain/Indicator: V-79 (HPRT)/6-THIOGUANINE, Metabolic Activation: RAT, LIVER, S-9, AROCLOR 1254
  mutagenic call: active; positive
Test System: CHINESE HAMSTER V-79, Strain/Indicator: V-79/8-AZAGUANINE, Metabolic Activation: RAT, LIVER, S-15, PHENOBARBITAL, Method: STANDARD PLATE
  mutagenic call: active; positive
Test System: CHINESE HAMSTER V-79, Strain/Indicator: V-79/OUABAIN, Metabolic Activation: CELL-MEDIATED, Method: STANDARD PLATE
  mutagenic call: active; positive
Test System: CHINESE HAMSTER V-79, Strain/Indicator: V-79/OUABAIN, Metabolic Activation: HAMSTER, HEPATOCYTES, Method: CELL-MEDIATED
  mutagenic call: active; positive
Test System: E. COLI, Strain/Indicator: WP2 (HCR-), Metabolic Activation: RAT, LIVER, MICROSOMES, PHENOBARBITAL
  mutagenic call: active; positive
Test System: E. COLI, Strain/Indicator: WP2 UVRA, Metabolic Activation: HAMSTER, LIVER, S-9, AROCLOR 1254, Method: PREINCUBATION
  mutagenic call: active; positive
Test System: E. COLI, Strain/Indicator: WP2 UVRA, Metabolic Activation: HAMSTER, LIVER, S-9, AROCLOR 1254, Method: STANDARD PLATE
  mutagenic call: inactive; negative
Test System: E. COLI, Strain/Indicator: WP2 UVRA, Metabolic Activation: HAMSTER, LIVER, S-9, Method: PREINCUBATION
  mutagenic call: active; positive
Test System: E. COLI, Strain/Indicator: WP2 UVRA, Metabolic Activation: HAMSTER, LIVER, S-9, Method: STANDARD PLATE
  mutagenic call: inactive; negative
Test System: E. COLI, Strain/Indicator: WP2 UVRA, Metabolic Activation: MOUSE, LIVER, S-9, AROCLOR 1254, Method: STANDARD PLATE
  mutagenic call: inactive; negative
Test System: E. COLI, Strain/Indicator: WP2 UVRA, Metabolic Activation: MOUSE, LIVER, S-9, Method: STANDARD PLATE
  mutagenic call: inactive; negative
Test System: E. COLI, Strain/Indicator: WP2 UVRA, Metabolic Activation: NONE, Method: STANDARD PLATE
  mutagenic call: inactive; negative
Test System: E. COLI, Strain/Indicator: WP2 UVRA, Metabolic Activation: RAT, LIVER, S-9, Method: PREINCUBATION
  mutagenic call: inactive; negative
Test System: E. COLI, Strain/Indicator: WP2 UVRA, Metabolic Activation: RAT, LIVER, S-9, Method: STANDARD PLATE
  mutagenic call: inactive; negative
Test System: MOUSE LYMPHOMA, Strain/Indicator: L5178Y (TK+/TK-), Metabolic Activation: RAT, LIVER, S-9, AROCLOR 1254, Method: SUSPENSION/PLATE
  mutagenic call: active; positive
Test System: UDS RAT HEPATOCYTES, Strain/Indicator: THY INCORP, Metabolic Activation: NONE, Method: LIQUID SCINTILLATION COUNTING
  mutagenic call: active; positive
Test System: UDS RODENT HEPATOCYTES, Strain/Indicator: THY INCORP (NON-S-PHASE), Method: AUTORADIOGRAPHY
  mutagenic call: active; positive
